Results published in publication PMC11071266, “The putative proton-coupled organic cation antiporter is involved in uptake of triptans into human brain capillary endothelial cells” (Fluids and Barriers of the CNS, 2024).
Entries after “also recorded” stand apart in the source; their conditions may differ. Where two headings read alike, the source gives them in different places.

Experiments:
H^+/OC antiporter [1] = assay: Inhibition of [^3H]-pyrilamine uptake into hCMEC/D3 cells; assay type: cell-based, human; conditions: [^3H]-pyrilamine 1 µCi/mL, 48 nM, read-out: Apparent IC50 on [^3H]-pyrilamine uptake
Experimental: The immortalized human cerebral microvascular endothelial cell line (hCMEC/D3) was maintained in T75-flasks coated with collagen type I from calf skin (C9791, 18.7 μg/mL) and cultured in EBM®-2 medium (Lonza, Basel, Schweiz) supplemented with 5% (v/v) fetal bovine serum (FBS, 10270, Life Technologies, CA, USA or SH3008803, ThermoFisher Scientific, MA, USA), 100 U/mL penicillin and 100 μg/ml streptomycin, 1 ng/mL human basic fibroblast growth factor (bFGF), 1.4 μM hydrocortisone, 1% (v/v) chemically defined lipid concentrate (ThermoFisher Scientific, MA, USA), 10 mM N-2-hydroxyethylpiperazine-N-2-ethane sulfonic acid (HEPES) and 5 μg/mL ascorbic acid (5% CO2, 37 °C). […] For experiments, cells were seeded into 24-well plates (6.7·10^4 cells/cm^2) and cultured for four continuous days. The cells were used for experiments between passage 3–31.
(§1) The cells were equilibrated in hHBSS with or without inhibitor for 15 min (37 °C, 90 rpm). The compound of interest was spiked into the hHBSS followed by incubation for a designated time. The timeframe of the initial uptake rate was validated into hCMEC/D3 cells (Fig. 1 and Additional file 1). The experiment was terminated by washing three times with ice-cold HBSS supplemented with 0.0375% (v/v) sodium bicarbonate.
The inhibitory constant at 50% inhibition (IC50) was determined by fitting the uptake flux (Jss) as function of the logarithmic inhibitor concentration to Eq. 2.2 Jss=Jmin+(Jmax-Jmin)/1+10^logIC50-InH where [I] is the inhibitor concentration, nH is the Hill coefficient.
The hCMEC/D3 cells were used for [^3H]-pyrilamine inhibition studies between passage 3–6 (pyrilamine, oxycodone), 16–18 (almotriptan), 7–13 (eletriptan), 25–27 (frovatriptan), 3–8 (naratriptan), 16–18 (rizatriptan), 12–14 (sumatriptan), and 14–16 (zolmitriptan).
The cells were permeabilized using 0.1% (v/v) Triton X-100 in ultrapure water (ELGA, Buckinghamshire, England) for 10 min at room temperature. Thereafter, the cells were scraped off the bottom of the wells, transferred to scintillation vials, and mixed with 2 mL of Ultima Gold 241 TM (Perkin Elmer, MA, USA). The samples were analyzed using a Tri-Carb 2910 TR Liquid Scintillation Analyzer (Perkin Elmer, MA, USA).

H^+/OC antiporter [2] = assay: Cellular uptake into hCMEC/D3 cells in absence or presence of pyrilamine or oxycodone; assay type: cell-based, human; conditions: triptan 50 µM, asterisks = P level; for Inhibition by oxycodone (of the compound's uptake): 500 µM oxycodone; for Inhibition by pyrilamine (of the compound's uptake): 500 µM pyrilamine
Experimental: as §1
The hCMEC/D3 cells were used for time-dependent uptake studies between passage 3–5 (pyrilamine), 7–9 (oxycodone), 6–8 (almotriptan), and 24–31 (eletriptan).
The hCMEC/D3 cells were used for uptake studies of almotriptan, eletriptan, and sumatriptan in the presence of pyrilamine and oxycodone between passage 21–23.
The cells were permeabilized using 50% (v/v) acetonitrile (HPLC LC–MS grade, VWR International S.A.S, Soeborg, Denmark) in ultrapure water (ELGA, Buckinghamshire, England) for 10 min at room temperature. Thereafter, the cells were scraped off the bottom of the wells and transferred to HPLC vials. Samples from bidirectional transport experiments were transferred directly into HPLC vials. All samples were stored at – 18 °C for later analysis. Calibration curves with standards in the range of 1 or 5–1000 ng/mL were dissolved in 50% (v/v) acetonitrile in ultrapure water (ELGA, Buckinghamshire, England), or in hHBSS(-) for analysis of bidirectional transport samples.
Liquid chromatography tandem mass spectrometry (LC–MS/MS) were performed using electrospray ionization in positive mode on a micromass Quattro micro™ API tandem quadrupole mass spectrometer (Waters, MA, USA) or an Ultivo triple quadrupole mass spectrometer (Agilent Technologies, CA, USA) coupled to Agilent HPLC system 1100 Series or 1260 Series (Agilent Technologies, CA, USA California), respectively. Applied columns were an InfinityLab Poroshell 120 EC-C18 (3.0 × 50 mm; 2.7 micron, Agilent Technologies, CA, USA) or a Kinetex 2.6 μm XB-C18 (100 Å, 100 × 4.6 mm, Phenomenex Inc., CA, USA). An overview of applied HPLC and MS/MS parameters can be found in Additional file 2 and Additional file 3, respectively. The data acquisition software was MassLynx (V4.1, Waters, MA, USA).

H^+/OC antiporter [3] = assay: Cellular uptake into hCMEC/D3 cells after intra- and extracellular pH manipulation; assay type: cell-based, human
[4] = In vivo brain distribution by neuropharmacokinetic assessment at steady state; parameters: species or system mice; conditions: for Kp at 2 h / concentration at 2 h: male, mouse; for Kp at 2 h: brain and plasma
Experimental: Male Abcb1a/Abcb1b-eKO1 (P-gp knockout) mice and FVB wild-type counterparts (18–24 g at arrival) were obtained from Shanghai Biomodel Organism Science & Technology Development Co. Ltd (Shanghai, China). […] Animals were housed in pairs in a temperature-controlled environment (20–24 °C) with lighting maintained under a 12-h light–dark cycle. Animals were habituated for at least seven days prior to surgery with free access to food and water.
In vivo experiments were conducted to assess the extent of the BBB transport of eletriptan and to elucidate the involvement of active transport processes. All mice were cannulated in the jugular vein for intravenous drug administration. Following surgery, the animals were allowed to recover for 3 days before administration of test compounds. Eletriptan HBr was dosed in P-gp knockout and wild type mice using a loading dose of 2 mg/kg (as bolus) followed by a 2-h constant rate infusion of 3 mg/kg (1.5 mg/kg/h) dissolved in 0.9% NaCl. […] Throughout all studies a dose volume of 10 mL/kg was applied. Serial blood samples were taken from the saphenous vein during the infusion to verify steady state and at the end of infusion. Terminal blood samples were collected from all animals. Brain samples were prepared by homogenization using ultrasonication as described previously [39] and analyzed together with the plasma samples using LC–MS/MS [39].
The total brain and plasma concentration partition coefficient (Kp) was calculated from Eq. 7.7 Kp=Ctot,brain,ss/Ctot,plasma,ss where Ctot,brain,ss and Ctot,plasma,ss is the total drug concentration at steady state in brain and plasma, respectively.
The unbound brain and plasma partition coefficient (Kp,uu) was derived from dividing the unbound brain concentration with the unbound plasma concentration at the end of infusion for each animal. The Kp,uu was calculated from Eq. 8.8 Kp,uu=Ctot,brain,ss·fu,brain/Ctot,plasma,ss·fu,plasma where fu,brain and fu,plasma is the fraction of unbound drug in the brain and plasma, respectively.

[5] = C57, mouse, 1 µM
Source text: C57 mice were used to prepare blank plasma and brain matrices throughout all binding studies.

P-gp [6] = system: P-gp; parameters: method as in PMID 12814962; conditions: brain Kp in wild type and mdr1a knockout mice; cited from earlier work
H^+/OC antiporter [7] = system: H^+/OC antiporter; parameters: method as in PMID 35955563; conditions: trans-stimulation in hCMEC/D3 cells; cited from earlier work
P-gp [8] = molecular target: P-gp (Homo sapiens, UniProt P08183); assay: Bidirectional transport across IPEC-J2 MDR1 monolayers; conditions: pH 7.4
Chain of P-gp (Homo sapiens, UniProt P08183) (P08183 whole entry): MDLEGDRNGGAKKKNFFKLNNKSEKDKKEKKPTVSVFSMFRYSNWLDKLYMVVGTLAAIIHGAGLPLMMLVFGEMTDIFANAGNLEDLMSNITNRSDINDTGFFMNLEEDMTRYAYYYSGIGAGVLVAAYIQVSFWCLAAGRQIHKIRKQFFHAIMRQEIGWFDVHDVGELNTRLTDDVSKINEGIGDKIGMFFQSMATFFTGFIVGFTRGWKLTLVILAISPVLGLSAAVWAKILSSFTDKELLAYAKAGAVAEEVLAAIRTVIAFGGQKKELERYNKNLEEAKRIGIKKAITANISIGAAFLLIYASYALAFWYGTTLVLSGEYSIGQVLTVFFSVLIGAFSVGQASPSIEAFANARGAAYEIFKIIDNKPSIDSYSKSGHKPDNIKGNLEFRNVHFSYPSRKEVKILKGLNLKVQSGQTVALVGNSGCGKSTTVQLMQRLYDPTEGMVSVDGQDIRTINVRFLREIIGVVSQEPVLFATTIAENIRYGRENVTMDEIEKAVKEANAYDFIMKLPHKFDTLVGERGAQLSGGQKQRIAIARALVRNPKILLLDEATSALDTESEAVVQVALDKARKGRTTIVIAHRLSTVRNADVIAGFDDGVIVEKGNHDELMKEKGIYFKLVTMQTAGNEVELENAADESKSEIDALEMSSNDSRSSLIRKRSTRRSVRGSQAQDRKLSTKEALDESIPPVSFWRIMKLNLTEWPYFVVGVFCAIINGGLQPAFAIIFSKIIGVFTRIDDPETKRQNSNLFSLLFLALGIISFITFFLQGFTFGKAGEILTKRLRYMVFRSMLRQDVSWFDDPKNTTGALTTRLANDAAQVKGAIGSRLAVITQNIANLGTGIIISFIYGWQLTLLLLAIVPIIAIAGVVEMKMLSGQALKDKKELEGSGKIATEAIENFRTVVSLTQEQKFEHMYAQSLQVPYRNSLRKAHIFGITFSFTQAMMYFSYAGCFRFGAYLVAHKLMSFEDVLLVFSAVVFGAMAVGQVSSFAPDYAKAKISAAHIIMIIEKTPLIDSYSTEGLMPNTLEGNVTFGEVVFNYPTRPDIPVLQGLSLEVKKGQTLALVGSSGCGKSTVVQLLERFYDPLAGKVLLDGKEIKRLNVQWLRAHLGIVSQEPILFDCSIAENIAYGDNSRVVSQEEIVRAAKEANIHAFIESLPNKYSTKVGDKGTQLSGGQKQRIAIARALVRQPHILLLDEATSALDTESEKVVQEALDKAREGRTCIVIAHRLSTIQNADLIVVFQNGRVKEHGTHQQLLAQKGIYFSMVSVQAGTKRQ
Experimental: The porcine ileum epithelial cell line IPEC-J2 transfected with human MDR1 [37] was maintained in T175-flasks and cultured in Dulbecco's Modified Eagle Medium/Nutrient Mixture F-12, supplemented with 10% (v/v) FBS (SH3008803, ThermoFisher Scientific, MA, USA), 100 U/mL penicillin and 100 μg/mL streptomycin, 2 mM L-glutamine, and 1 mM sodium pyruvate. The culture medium was supplemented with 2 µg/mL puromycin during maintenance. Culture media was changed every second or third day. Cells were passaged using trypsin–EDTA solution 10x (5–10 min, 5% CO2, 37 °C). For experiments, cells were either seeded into 24-well plates (1·10^5 cells/cm^2) and cultured for 2 days or seeded on Transwell® polyester inserts (3460, 1.12 cm^2, pore size 0.4 µm) (3.57·10^4 cells/cm^2) and cultured for 15–17 days. IPEC-J2 MDR1 cells were used for experiments between passage 2–4.
Bidirectional transport studies were conducted using IPEC-J2 MDR1 cell monolayers cultured on semipermeable Transwell® polyester inserts (Corning Inc., NY, USA, 3460, 1.12 cm^2, pore size 0.4 µm). The cells were washed twice with 37 °C hHBSS. […]
The accumulated amount of drug (Q) was calculated for each time-point using Eq. 3.3 Q=Vs∑n-1nCn-1+CnVt where Vs represents the sample volume, Vt the total volume of the receiver compartment, Cn is the concentration of the sample n.
Steady state flux (Jsteady state) was calculated as the slope of the linear part of the accumulated amount (Q) in the receiver compartment as function of time from Eq. 4.4 Jss=ΔQ/Δt·A where t represents time and A is the area of the permeable support.
The apparent permeability (Papp) was calculated from Eq. 5.5 Papp=Jss/Cdonor where Cdonor represents the initial concentration in the donor compartment.
Efflux ratios (ER) were calculated as the ratio of the apparent permeability in the basolateral to apical direction Papp(B-A) and the permeability in the apical to basolateral direction Papp(A-B) using Eq. 6.6 ER=PappB-A/Papp(A-B)

IC50 (H^+/OC antiporter [1]; listed as eletriptan): ~15 µM
IC50 (H^+/OC antiporter [1]): 15 ± 4 µM
Increase of brain uptake (Kp, Kp,uu) in mdr1a/1b knockout vs wild type mice ([4]; knockout vs wild type): > 30 fold
Kp at 2 h ([4]; Abcb1a/Abcb1b-eKO1 (P-gp knockout), intravenous, mdr1a/1b knockout mice, steady state, read-out: Kp (C,brain/C,plasma)): 6.35 ± 0.91
Kp at 2 h ([4]; Abcb1a/Abcb1b-eKO1 (P-gp knockout), intravenous, mdr1a/1b knockout mice, steady state, read-out: Kp,uu (C,brain·fu,brain)/C,plasma·fu,plasma)): 1.32
concentration at 2 h ([4]; Abcb1a/Abcb1b-eKO1 (P-gp knockout), brain, intravenous, mdr1a/1b knockout mice, steady state, read-out: C,brain): 1450 ± 175 ng/mL
concentration at 2 h ([4]; Abcb1a/Abcb1b-eKO1 (P-gp knockout), plasma, iv, mdr1a/1b knockout mice, steady state, 2-h i.v. infusion, read-out: C,plasma): 229 ± 6 ng/mL
concentration at 2 h ([4]; FVB (wild type and Abcb1a/Abcb1b knockout), plasma, intravenous, bolus dose followed by 2-h constant infusion, read-out: Plasma concentrations at steady state): 259 ± 30 ng/mL
Kp at 2 h ([4]; FVB wild-type (eletriptan), C57BL/6N (diphenhydramine), intravenous, wild type mice, steady state, read-out: Kp (C,brain/C,plasma)): 0.17 ± 0.016
Kp at 2 h ([4]; FVB wild-type (eletriptan), C57BL/6N (diphenhydramine), intravenous, wild type mice, steady state, read-out: Kp,uu (C,brain·fu,brain)/C,plasma·fu,plasma)): 0.04
concentration at 2 h ([4]; FVB wild-type (eletriptan), C57BL/6N (diphenhydramine), brain, intravenous, wild type mice, steady state, read-out: C,brain): 41 ± 5 ng/mL
concentration at 2 h ([4]; FVB wild-type (eletriptan), C57BL/6N (diphenhydramine), plasma, iv, wild type mice, steady state, 2-h i.v. infusion, read-out: C,plasma): 240 ± 18 ng/mL
fu,plasma [5]: 40%
fu,brain ([5]; plasma): 8.3%
Papp A→B at 120 min, 50 µM (P-gp [8]): 0.82 ± 0.05 ×10⁻⁶ cm/s
Papp B→A at 120 min, 50 µM (P-gp [8]): 24 ± 2 ×10⁻⁶ cm/s
efflux ratio at 120 min, 50 µM (P-gp [8]): 28.9 ± 1.8
Structure (SMILES): CN1CCC[C@@H]1Cc1c[nH]c2ccc(CCS(=O)(=O)c3ccccc3)cc12 [Eletriptan]
Inhibition by oxycodone (of the compound's uptake) (H^+/OC antiporter [2]): yes (*)
Inhibition by oxycodone (of the compound's uptake) (H^+/OC antiporter [2]; listed as eletriptan): inhibited the uptake of eletriptan in a statistically significant manner
Inhibition by pyrilamine (of the compound's uptake) (H^+/OC antiporter [2]): yes (****)
Inhibition by pyrilamine (of the compound's uptake) (H^+/OC antiporter [2]; listed as eletriptan): inhibited the uptake of eletriptan in a statistically significant manner; also recorded: almost be completely inhibited
Cellular uptake after intracellular alkalization (H^+/OC antiporter [3]; acute exposure to 30 mM NH4Cl vs control pH 7.4): decreased
Cellular uptake at extracellular acidification (H^+/OC antiporter [3]; extracellular pH 6.8 vs pH 7.4): did not affect
Cellular uptake at extracellular alkalization (H^+/OC antiporter [3]; extracellular pH 8.2 vs pH 7.4): slight decrease
Proton-gradient dependence of uptake (H^+/OC antiporter [3]; hCMEC/D3 cells): yes
Cellular uptake after intracellular acidification (H^+/OC antiporter [3]; preexposure to 30 mM NH4Cl followed by media change vs control): statistically significant increase
P-gp substrate (P-gp [6]): substrates of P-gp
H^+/OC antiporter substrate (H^+/OC antiporter [7]): might be a substrate of the H^+/OC antiporter
